Data as given in patent US11725026B2, “Compositions and methods for inhibiting lactate dehydrogenase a activity” (Research Foundation for SUNY, priority 2019, dated 2023).
Blank lines part the entries; values can stand above or below the molecule they belong to. Where a SMILES comes first, the peptide text is derived from it. Where no end group is shown, it is not given here.

Experiments:
LDHA [1] = biological target: T1, LDHA (Homo sapiens, UniProt P00338); assay: LDH activity assay (MAK066) with recombinant LDHA; type: biochemical; conditions: 25 ng recombinant LDHA pre-incubated with peptide 30 min on ice
T1 construct: a complex of FLCN-10 peptide with full-length recombinant LDHA; 6xHis (leader of vector pRSET-A) (N); made in house; host or cells: E. coli BL21 (DE3)
Method: Lactate dehydrogenase activity was measured according to the manufacturer's protocol (MAK066, Sigma-Aldrich). […] Samples were then transferred to an optically clear 96-well plate and substrate mix was added to each well. Absorbance was measured at 450 nm every five minutes until saturation. […] All experiments were carried out in triplicate.
Lactate dehydrogenase activity was measured according to the manufacturer's protocol (MAK066, Sigma-Aldrich). […] Samples were then transferred to an optically clear 96-well plate and substrate mix was added to each well. Absorbance was measured at 450 nm every five min until saturation.

[2] = tested on: renal tumor tissue and adjacent normal kidney-tissue from a BHD patient; assay: Ex vivo peptide treatment of BHD patient renal tumor and adjacent normal tissue; set-up: species or system human; conditions: FLCN-10-Rhodamine B, 2 h at 37° C., fluorescence microscopy
Method: Tumor tissues from the BHD patient were obtained with written informed consent from the Department of Urology at SUNY (State University of New York) Upstate Medical University. At the time of partial nephrectomy, which was done with <15 min of renal ischemia, BHD tumors were dissected into 3-5 mm^3 pieces and cultured on a presoaked gelatin sponge (Johnson & Johnson) in 24-well plates containing 2 ml RPMI-1640 with 10% FBS, antibiotic/antimycotic solution. Tissues were cultured at 37° C. for 16 hr, followed by the addition of the indicated concentrations of FLCN-10-Rhod-B and further incubation at 37° C. for 2 hr.
Tumor and adjacent normal renal tissue from the BHD patient were obtained with written informed consent on an Institutional Review Board (IRB)-approved protocol from the Department of Urology at SUNY Upstate Medical University. At the time of partial nephrectomy, which was done with <15 min of renal ischemia, BHD tumors were dissected into 3- to 5-mm^3 pieces and cultured on a presoaked gelatin sponge (Johnson & Johnson) in 24-well plates containing 2 ml RPMI-1640 with 10% FBS and antibiotic/antimycotic solution. Tissues were cultured at 37° C. for 16 h, followed by the addition of the indicated concentrations of FLCN-10-Rhod-B and further incubation at 37° C. for 2 h. […]

LDHA (pTyr10-LDHA) = biological target: T2, LDHA (pTyr10-LDHA) (Homo sapiens, UniProt P00338); assay: LDHA activity in cells by pTyr10-LDHA immunoblot; type: cell-based
T2 construct: a panel of cancer cell lines were immunoblotted to observe levels of endogenous FLCN and pTyr10-LDHA; endogenous in cells; host or cells: Caki-1, HEK293, PC3, A549 and other human cancer cell lines
Text: The supernatant was then transferred to a fresh microtube.

ccRCC cell lines = assay: Apoptosis / cell death in ccRCC renal cell lines (cleaved PARP/caspase-3 immunoblot, Annexin V/propidium iodide flow cytometry); type: cell-based, human; conditions: Caki-1 cells, Western blot, normalized for amount of peptide residing in cells
LDHA [3] = biological target: T1, LDHA; assay: Fluorescence anisotropy binding of Rhodamine-B-labeled FLCN peptides to recombinant LDHA
Method: LDHA at the indicated concentrations was incubated on ice in 50 mM Tris pH 7.2, 150 mM NaCl, 1 mM TCEP, 4 mM MgCl2 with […] labelled FLCN peptide for 30 min.
Fluorescence anisotropy was measured using a SpectraMax 3 equipped with rhodamine fluorescence polarization module (lex\lem.535 nm/595 nm). Curve fitting was done in KaleidaGraph 4.0.
LDHA at the indicated concentrations was incubated on ice in 50 mM Tris pH 7.2, 150 mM NaCl, 1 mM TCEP, 4 mM MgCl2 with […] Rhodamine-B-labeled FLCN peptide for 30 min. Fluorescence anisotropy was measured in triplicate using a SpectraMax i3 equipped with rhodamine fluorescence polarization module (lex\lem.535 nm/595 nm). Curve fitting was done in KaleidaGraph 4.0.

inhibitory effect on LDHA activity (LDHA [1]): 70%
Molecule: CSCC[C@H](NC(=O)[C@H](CCCNC(=N)N)NC(=O)[C@H](CCC(N)=O)NC(=O)[C@H](C)N)C(=O)N[C@@H](CC(N)=O)C(=O)N[C@H](C(=O)N[C@@H](C)C(=O)N[C@@H](Cc1ccccc1)C(=O)N[C@H](C(=O)N1CCC[C@H]1C(=O)O)[C@@H](C)O)[C@@H](C)O [FLCN-10] (H-AQRMNTAFTP-OH; N-terminus and C-terminus assumed)
tissue penetration ex vivo [2]: able to penetrate both normal and tumor tissues

activity against LDHA in Caki-1 cells (LDHA (pTyr10-LDHA)): effective at inhibiting LDHA activity
Molecule: PEGylated FLCN-10: FLCN-10 peptide modified by PEGylation to protect from cellular proteases (AQRMNTAFTP; also: PEGylated, site not given here)
pro-apoptotic activity of modified FLCN-10 peptides (ccRCC cell lines): minimal pro-apoptotic activity

binding to LDHA (in words) (LDHA [3]; determined by anisotropy): bound tightly to LDHA
Ka of LDHA with FLCN peptide (LDHA [3]; fluorescence polarization anisotropy, n=3): ≈ 1×10^7
Molecule: QRMNTAFTPFL [FLCN-1, peptide derived from aa220-230 of FLCN]
